Assay results: BindingDB's records for doi:10.1016/s0960-894x(99)00670-8 (Institute, 2000)

Assay: Binding affinity was determined against Opioid receptor delta 1 obtained from guinea pig brain membranes using [3H]naltrindole as radioligand

SMILES: C[C@H]1C2Cc3ccc(N)cc3[C@@]1(C)CCN2CC1CC1 [3-Cyclopropylmethyl-6,11-dimethyl-1,2,3,4,5,6-hexahydro-2,6-methano-benzo[d]azocin-8-ylamine]
- Ki: 12 nM
